# Measurements as given in patent US5770380A (priority 1996, dated 1998).
# Molecular target: Horse Cytochrome c (Equus caballus, UniProt P00004)
# Test: Micro calorimetry titration of Cytochrome c
# Format: binding
# Conditions: micro calorimetry titration (FIG. 9); read-out: association constant (converted)
# Excerpt: FIG. 9 illustrates a micro calorimetry titration of Cytochrome c with a preferred embodiment of the present invention.
# Horse Cytochrome c is an electron-transferring protein with a heme prosthetic group. The size of this protein is 12,384 Dalton and the surface is highly positively charged with lysine and arginine residues. For the X-ray crystal structure of Cytochrome c, see: Bushnell, G. W.; Louie, G. D.; Brayer, G. D. J. Mol. Biol. 1990, 214, 585. NMR titration of Cytochrome c with a preferred embodiment of the invention, designated 1 below, was performed under the condition described in FIG. 8 and two of the hyperfine region protons from heme in Cytochrome c, heme 8-CH3 and heme 3-CH3, were followed. […] The direction and the size of shifts are about the same as those of the titration between Cytochrome c and Cytochrome c peroxydase and peak broadening was also observed in the peroxydase titration. For NMR titration of cytochrome c and cytochrome-c peroxydase, see: Satterlee, J. D.; Moench, S. J.; Erman, J. E. Biochemica et Boiphysica Acta 1987, 912, 87-97. FIG. 8 is consistent with 1:1 binding. [drawing 1] Micro calorimetry titration of Cytochrome c with 1 was also performed (see FIG. 9). The association constant was calculated as 136000M^-1 therefore ΔG=-7.0 kcal/mol. As the enthalpy of the binding event is simulated as -5.6 kcal/mol, the entropy portion should be -1.4 kcal/mol. […]
# Horse Cytochrome c, sequence (P00004 whole entry): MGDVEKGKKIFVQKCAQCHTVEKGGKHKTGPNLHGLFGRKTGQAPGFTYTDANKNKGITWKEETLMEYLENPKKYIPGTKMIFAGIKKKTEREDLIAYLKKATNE
structure (smiles),measurement,value
"CCCCOc1c2cc(C(=O)Nc3cc4cc(c3)C(=O)NCC(=O)N[C@@H](CC(=O)O)C(=O)NCC(=O)N[C@@H](CC(=O)O)C(=O)NC4)cc1Cc1cc(C(=O)Nc3cc4cc(c3)C(=O)NCC(=O)N[C@@H](CC(=O)O)C(=O)NCC(=O)N[C@@H](CC(=O)O)C(=O)NC4)cc(c1OCCCC)Cc1cc(C(=O)Nc3cc4cc(c3)C(=O)NCC(=O)N[C@@H](CC(=O)O)C(=O)NCC(=O)N[C@@H](CC(=O)O)C(=O)NC4)cc(c1OCCCC)Cc1cc(C(=O)Nc3cc4cc(c3)C(=O)NCC(=O)N[C@@H](CC(=O)O)C(=O)NCC(=O)N[C@@H](CC(=O)O)C(=O)NC4)cc(c1OCCCC)C2 [compound 1, Calix[4]arenetetracyclicpeptide1]",Kd,7.35 µM
